Test results from patent US8741934B2, “Inhibitors of ion channels” (Pfizer Limited, priority 2007, dated 2014).
pIC50: −log10 of the molar value.

Biological target: T1, hSCN3A sodium channels (Homo sapiens, UniProt Q9NY46)
T1 construct: expressed in transfected cells
Assay: hSCN3A electrophysiology, Ionworks Quattro automated platform (Table C)
Type: cell-based
Details: for inhibition at 3 µM: read-out: SCN3A % INHIB HTS IWQ 3 μM; for inhibition at 10 µM: read-out: SCN3A % INHIB HTS IWQ 10 μM; for SCN3A INHIB INACT DRC EP IWQ EMAX: Emax of dose-response curve, inactivated state
Outline: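 HEK cells stably expressing hSCN3A were recorded in perforated-patch mode with 100 μg/ml amphotericin on Ionworks Quattro. The protocol used an inactivating step, a brief hyperpolarized partial recovery, then a depolarized test step. Inhibition was taken from current amplitude before versus after compound addition.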

T1 sequence (Q9NY46 whole entry): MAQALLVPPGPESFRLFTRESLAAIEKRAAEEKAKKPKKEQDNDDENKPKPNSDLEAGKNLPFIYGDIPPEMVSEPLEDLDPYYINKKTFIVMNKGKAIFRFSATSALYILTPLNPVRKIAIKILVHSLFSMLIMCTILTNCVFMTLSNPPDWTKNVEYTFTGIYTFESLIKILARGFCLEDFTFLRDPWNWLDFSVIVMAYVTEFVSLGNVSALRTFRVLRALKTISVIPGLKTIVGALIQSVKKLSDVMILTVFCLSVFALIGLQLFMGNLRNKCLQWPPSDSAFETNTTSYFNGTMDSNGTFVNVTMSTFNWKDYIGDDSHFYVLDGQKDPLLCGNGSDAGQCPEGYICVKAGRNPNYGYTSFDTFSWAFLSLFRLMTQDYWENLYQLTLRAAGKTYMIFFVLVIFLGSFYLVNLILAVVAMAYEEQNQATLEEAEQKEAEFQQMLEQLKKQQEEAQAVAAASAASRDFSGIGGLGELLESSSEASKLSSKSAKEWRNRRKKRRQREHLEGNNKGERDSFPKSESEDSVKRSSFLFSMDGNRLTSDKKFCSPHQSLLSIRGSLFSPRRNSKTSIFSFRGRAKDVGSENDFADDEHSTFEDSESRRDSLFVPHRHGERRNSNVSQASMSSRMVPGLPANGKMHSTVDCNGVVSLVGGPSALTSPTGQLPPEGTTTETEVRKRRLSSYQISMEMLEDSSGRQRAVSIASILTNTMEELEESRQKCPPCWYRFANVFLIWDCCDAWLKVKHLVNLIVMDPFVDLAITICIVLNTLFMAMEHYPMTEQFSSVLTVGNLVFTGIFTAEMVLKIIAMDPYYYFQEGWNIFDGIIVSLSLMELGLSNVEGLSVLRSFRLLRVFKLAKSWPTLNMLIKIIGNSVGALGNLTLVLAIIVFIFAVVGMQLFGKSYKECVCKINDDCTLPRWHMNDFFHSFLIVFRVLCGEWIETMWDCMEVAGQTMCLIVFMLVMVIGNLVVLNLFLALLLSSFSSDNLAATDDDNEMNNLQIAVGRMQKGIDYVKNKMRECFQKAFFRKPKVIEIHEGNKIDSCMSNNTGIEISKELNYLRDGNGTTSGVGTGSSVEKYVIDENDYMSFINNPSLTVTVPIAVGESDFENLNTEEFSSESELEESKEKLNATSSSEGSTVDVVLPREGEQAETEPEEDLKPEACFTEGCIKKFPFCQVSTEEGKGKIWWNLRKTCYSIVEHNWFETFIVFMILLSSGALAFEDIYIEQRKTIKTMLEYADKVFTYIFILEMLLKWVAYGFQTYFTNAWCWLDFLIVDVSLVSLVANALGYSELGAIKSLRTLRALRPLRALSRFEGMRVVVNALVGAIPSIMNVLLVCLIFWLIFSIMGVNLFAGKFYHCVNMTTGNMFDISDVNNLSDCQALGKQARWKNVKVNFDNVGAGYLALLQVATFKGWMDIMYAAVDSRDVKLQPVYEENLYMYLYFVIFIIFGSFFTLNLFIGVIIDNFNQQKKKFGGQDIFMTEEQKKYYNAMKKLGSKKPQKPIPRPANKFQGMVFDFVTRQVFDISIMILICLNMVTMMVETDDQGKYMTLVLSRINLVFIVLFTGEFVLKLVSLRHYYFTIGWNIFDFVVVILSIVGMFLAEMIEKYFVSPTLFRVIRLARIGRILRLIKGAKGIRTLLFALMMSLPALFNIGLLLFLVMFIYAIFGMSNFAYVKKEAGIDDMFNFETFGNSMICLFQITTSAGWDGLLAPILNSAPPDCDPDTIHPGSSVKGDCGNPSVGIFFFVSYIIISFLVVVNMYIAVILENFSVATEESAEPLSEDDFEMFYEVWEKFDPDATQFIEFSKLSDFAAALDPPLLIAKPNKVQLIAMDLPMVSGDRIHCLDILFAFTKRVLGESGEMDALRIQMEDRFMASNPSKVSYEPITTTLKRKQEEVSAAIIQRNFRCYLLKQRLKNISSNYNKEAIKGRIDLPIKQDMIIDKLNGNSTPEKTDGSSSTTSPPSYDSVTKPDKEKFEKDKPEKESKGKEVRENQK

O=C(c1ccc(S(=O)(=O)Nc2nccs2)cc1)N1CCCCC1COc1ccccc1 (stereo not shown) [Example 224, 4-{[2-(Phenoxymethyl)piperidin-1-yl]carbonyl}-N-1,3-thiazol-2-yl-benzenesulfonamide]
inhibition at 3 µM (3 μM compound): 3.47% | inhibition at 10 µM (10 μM compound): 9.34%

Cc1cccc(CC2COCCN(C(=O)c3ccc(S(=O)(=O)Nc4nccs4)cc3)C2)n1 (stereo not shown) [Example 225, 4-({6-[(6-Methylpyridin-2-yl)methyl]-1,4-oxazepan-4-yl}carbonyl)-N-1,3-thiazol-2-yl-benzenesulfonamide]
inhibition at 3 µM (3 μM compound): 6.08% | inhibition at 10 µM (10 μM compound): -8.14%

O=C(c1ccc(S(=O)(=O)Nc2nccs2)cc1)N(Cc1ccccc1)[C@@H]1CCCC[C@@H]1CO [Example 226, N-benzyl-N-[(1R,2S)-2-(hydroxymethyl)cyclohexyl]-4-[(1,3-thiazol-2-ylamino)sulfonyl]benzamide]
inhibition at 3 µM (3 μM compound): -1.52% | inhibition at 10 µM (10 μM compound): 13.9%

O=C(c1ccc(S(=O)(=O)Nc2nccs2)cc1)N1CCC(CCc2ccccc2)C1 (stereo not shown) [Example 227, 4-{[3-(2-Phenylethyl)pyrrolidin-1-yl]carbonyl}-N-1,3-thiazol-2-yl-benzenesulfonamide]
inhibition at 3 µM (3 μM compound): 29.3% | inhibition at 10 µM (10 μM compound): 45.8% | SCN3A INHIB INACT DRC EP IWQ EMAX: 53 | pIC50 (read-out: SCN3A IWQ IC-50): 4.69

Cc1cccc(C2CCCN2C(=O)c2ccc(S(=O)(=O)Nc3nccs3)cc2)c1 (stereo not shown) [Example 228, 4-{[2-(3-Methylphenyl)pyrrolidin-1-yl]carbonyl}-N-1,3-thiazol-2-yl-benzenesulfonamide]
inhibition at 3 µM (3 μM compound): 19.3% | inhibition at 10 µM (10 μM compound): 3.53%

CC(c1ccccc1)N(CCO)C(=O)c1ccc(S(=O)(=O)Nc2nccs2)cc1 (stereo not shown) [Example 229, N-(2-hydroxyethyl)-N-(1-phenylethyl)-4-[(1,3-thiazol-2-yl-amino)sulfonyl]benzamide]
inhibition at 3 µM (3 μM compound): 12.5% | inhibition at 10 µM (10 μM compound): 3.91%

O=C(c1ccc(S(=O)(=O)Nc2nccs2)cc1)N(Cc1ccc(F)cc1)C1CC1 [Example 230, N-cyclopropyl-N-(4-fluorobenzyl)-4-[(1,3-thiazol-2-yl-amino)sulfonyl]benzamide]
inhibition at 3 µM (3 μM compound): 16.7% | inhibition at 10 µM (10 μM compound): -0.51%

O=C(c1ccc(S(=O)(=O)Nc2nccs2)cc1)N1CCOC(C2CC2)C1 (stereo not shown) [Example 231, 4-[(2-Cyclopropylmorpholin-4-yl)carbonyl]-N-1,3-thiazol-2-yl-benzenesulfonamide]
inhibition at 3 µM (3 μM compound): 3.22% | inhibition at 10 µM (10 μM compound): -7.02%

O=C(c1ccc(S(=O)(=O)Nc2nccs2)cc1)N1CCCC1Cc1ccccc1F (stereo not shown) [Example 233, 4-{[2-(2-Fluorobenzyl)pyrrolidin-1-yl]carbonyl}-N-1,3-thiazol-2-yl-benzenesulfonamide]
inhibition at 3 µM (3 μM compound): 18.5% | inhibition at 10 µM (10 μM compound): 15.9%

O=C(c1ccc(S(=O)(=O)Nc2nccs2)cc1)N1CCOC(COc2cccc(Cl)c2)C1 (stereo not shown) [Example 234, 4-({2-[(3-Chlorophenoxy)methyl]morpholin-4-yl}carbonyl)-N-1,3-thiazol-2-yl-benzenesulfonamide]
inhibition at 3 µM (3 μM compound): 32% | inhibition at 10 µM (10 μM compound): 45.9% | SCN3A INHIB INACT DRC EP IWQ EMAX: 43.1

CN(CCC(O)c1ccccc1)C(=O)c1ccc(S(=O)(=O)Nc2nccs2)cc1 (stereo not shown) [Example 235, N-(3-hydroxy-3-phenylpropyl)-N-methyl-4-[(1,3-thiazol-2-yl-amino)sulfonyl]benzamide]
inhibition at 3 µM (3 μM compound): 21.4% | inhibition at 10 µM (10 μM compound): -2.43%

O=C(c1ccc(S(=O)(=O)Nc2nccs2)cc1)N1CCCC(Cc2ncccn2)C1 (stereo not shown) [Example 237, 4-{[3-(Pyrimidin-2-ylmethyl)piperidin-1-yl]carbonyl}-N-1,3-thiazol-2-yl-benzenesulfonamide]
inhibition at 3 µM (3 μM compound): 24.7% | inhibition at 10 µM (10 μM compound): 17.6%

O=C(c1ccc(S(=O)(=O)Nc2nccs2)cc1)N1CCCCC1c1ccccn1 (stereo not shown) [Example 238, 4-[(2-Pyridin-2-ylpiperidin-1-yl)carbonyl]-N-1,3-thiazol-2-yl-benzenesulfonamide]
inhibition at 3 µM (3 μM compound): 3.68% | inhibition at 10 µM (10 μM compound): 9.77%

COc1cccc(CC2CCCN2C(=O)c2ccc(S(=O)(=O)Nc3nccs3)cc2)c1 (stereo not shown) [Example 240, 4-{[2-(3-Methoxybenzyl)pyrrolidin-1-yl]carbonyl}-N-1,3-thiazol-2-yl-benzenesulfonamide]
inhibition at 3 µM (3 μM compound): 14.4% | inhibition at 10 µM (10 μM compound): 20.2%

C[C@H]([C@@H](O)c1ccccc1)N(C)C(=O)c1ccc(S(=O)(=O)Nc2nccs2)cc1 [Example 241, N-[(1R,2S)-2-hydroxy-1-methyl-2-phenylethyl]-N-methyl-4-[(1,3-thiazol-2-ylamino)sulfonyl]benzamide]
inhibition at 3 µM (3 μM compound): 21.7% | inhibition at 10 µM (10 μM compound): 11.6%

Cc1cccc(CC2CCCCN2C(=O)c2ccc(S(=O)(=O)Nc3nccs3)cc2)n1 (stereo not shown) [Example 242]
SCN3A % INHIB HTS IWQ 3 μM (3 μM compound): 13.78% | SCN3A % INHIB HTS IWQ 10 μM (10 μM compound): 8.48%

Cc1ncccc1OCC1CN(C(=O)c2ccc(S(=O)(=O)Nc3nccs3)cc2)CCO1 (stereo not shown) [Example 243, 4-[(2-{[(2-Methylpyridin-3-yl)oxy]methyl}morpholin-4-yl)carbonyl]-N-1,3-thiazol-2-yl-benzenesulfonamide]
inhibition at 3 µM (3 μM compound): 15.3% | inhibition at 10 µM (10 μM compound): 14.7%

O=C(c1ccc(S(=O)(=O)Nc2nccs2)cc1)N1CCCCC1Cc1ccccn1 (stereo not shown) [Example 244, 4-{[2-(Pyridin-2-ylmethyl)piperidin-1-yl]carbonyl}-N-1,3-thiazol-2-yl-benzenesulfonamide]
inhibition at 3 µM (3 μM compound): 14.2% | inhibition at 10 µM (10 μM compound): 21.9%

Cc1cc(C)nc(CC2CCCCCN2C(=O)c2ccc(S(=O)(=O)Nc3nccs3)cc2)c1 (stereo not shown) [Example 246, 4-({2-[(4,6-Dimethylpyridin-2-yl)methyl]azepan-1-yl}carbonyl)-N-1,3-thiazol-2-yl-benzenesulfonamide]
inhibition at 3 µM (3 μM compound): -0.31% | inhibition at 10 µM (10 μM compound): -1.47%

Cc1ccnc(CC2CCCN2C(=O)c2ccc(S(=O)(=O)Nc3nccs3)cc2)c1 (stereo not shown) [Example 248, 4-({2-[(4-Methylpyridin-2-yl)methyl]pyrrolidin-1-yl}carbonyl)-N-1,3-thiazol-2-yl-benzenesulfonamide]
inhibition at 3 µM (3 μM compound): 20.1% | inhibition at 10 µM (10 μM compound): 14.7%

CN(CC(O)c1ccccc1)C(=O)c1ccc(S(=O)(=O)Nc2nccs2)cc1 (stereo not shown) [Example 250, N-(2-hydroxy-2-phenylethyl)-N-methyl-4-[(1,3-thiazol-2-yl-amino)sulfonyl]benzamide]
inhibition at 3 µM (3 μM compound): -4.32% | inhibition at 10 µM (10 μM compound): 0.12%

CN(C(=O)c1ccc(S(=O)(=O)Nc2nccs2)cc1)C(Cc1ccccc1)c1ccccc1 (stereo not shown) [Example 251, N-(1,2-diphenylethyl)-N-methyl-4-[(1,3-thiazol-2-ylamino)sulfonyl]benzamide]
inhibition at 3 µM (3 μM compound): 19.9% | inhibition at 10 µM (10 μM compound): 0.8%

O=C(c1ccccc1)C1CCCN(C(=O)c2ccc(S(=O)(=O)Nc3nccs3)cc2)C1 (stereo not shown) [Example 253, 4-[(3-Benzoylpiperidin-1-yl)carbonyl]-N-1,3-thiazol-2-yl-benzenesulfonamide]
inhibition at 3 µM (3 μM compound): 5.99% | inhibition at 10 µM (10 μM compound): 31.3%

O=C(c1ccc(S(=O)(=O)Nc2nccs2)cc1)N1CCCCCC1c1ccccn1 (stereo not shown) [Example 255, 4-[(2-Pyridin-2-ylazepan-1-yl)carbonyl]-N-1,3-thiazol-2-yl-benzenesulfonamide]
inhibition at 3 µM (3 μM compound): 4.16% | inhibition at 10 µM (10 μM compound): 6.56%

C[C@@H](c1ccccc1)N(C)C(=O)c1ccc(S(=O)(=O)Nc2nccs2)cc1 [Example 256, N-methyl-N-[(1S)-1-phenylethyl]-4-[(1,3-thiazol-2-yl-amino)sulfonyl]benzamide]
inhibition at 3 µM (3 μM compound): 1.49% | inhibition at 10 µM (10 μM compound): 6.44%

O=C(c1ccc(S(=O)(=O)Nc2nccs2)cc1)N1CCOCC(O)(Cc2ccccc2)C1 (stereo not shown) [Example 258, 4-[(6-Benzyl-6-hydroxy-1,4-oxazepan-4-yl)carbonyl]-N-1,3-thiazol-2-yl-benzenesulfonamide]
inhibition at 3 µM (3 μM compound): 0.17% | inhibition at 10 µM (10 μM compound): 12%

O=C(c1ccc(S(=O)(=O)Nc2nccs2)cc1)N1CCOCC(Cc2ccccc2)C1 (stereo not shown) [Example 259, 4-[(6-Benzyl-1,4-oxazepan-4-yl)carbonyl]-N-1,3-thiazol-2-yl-benzenesulfonamide]
inhibition at 3 µM (3 μM compound): 5.51% | inhibition at 10 µM (10 μM compound): 19.6%

COCCCOC1CCCN(C(=O)c2ccc(S(=O)(=O)Nc3nccs3)cc2)C1 (stereo not shown) [Example 260, 4-{[3-(3-Methoxypropoxy)piperidin-1-yl]carbonyl}-N-1,3-thiazol-2-yl-benzenesulfonamide]
inhibition at 3 µM (3 μM compound): -3.05% | inhibition at 10 µM (10 μM compound): 10.5%

O=C(c1ccc(S(=O)(=O)Nc2nccs2)cc1)N1CCCC[C@@H]1c1ccccn1 [Example 261, 4-{[(2R)-2-pyridin-2-yl-piperidin-1-yl]carbonyl}-N-1,3-thiazol-2-yl-benzenesulfonamide]
inhibition at 3 µM (3 μM compound): 6.02% | inhibition at 10 µM (10 μM compound): 10.4%

O=C(c1ccc(S(=O)(=O)Nc2nccs2)cc1)N1CCCC(COc2ccc(F)cc2)C1 (stereo not shown) [Example 264, 4-({3-[(4-Fluorophenoxy)methyl]piperidin-1-yl}carbonyl)-N-1,3-thiazol-2-yl-benzenesulfonamide]
inhibition at 3 µM (3 μM compound): 16.9% | inhibition at 10 µM (10 μM compound): 14.8%

N#Cc1cccc(OC2CCCN(C(=O)c3ccc(S(=O)(=O)Nc4nccs4)cc3)C2)c1 (stereo not shown) [Example 265, 4-{[3-(3-Cyanophenoxy)piperidin-1-yl]carbonyl}-N-1,3-thiazol-2-yl-benzenesulfonamide]
inhibition at 3 µM (3 μM compound): 22.6% | inhibition at 10 µM (10 μM compound): 44.3% | SCN3A INHIB INACT DRC EP IWQ EMAX: 32.2

O=C(c1ccc(S(=O)(=O)Nc2nccs2)cc1)N1CCCC(COc2ccccc2)C1 (stereo not shown) [Example 267, 4-{[3-(Phenoxymethyl)piperidin-1-yl]carbonyl}-N-1,3-thiazol-2-yl-benzenesulfonamide]
inhibition at 3 µM (3 μM compound): 30.1% | inhibition at 10 µM (10 μM compound): 23.1%

O=C(c1ccc(S(=O)(=O)Nc2nccs2)cc1)N1CCCCCC1c1ccccc1 (stereo not shown) [Example 268, 4-[(2-Phenylazepan-1-yl)carbonyl]-N-1,3-thiazol-2-yl-benzenesulfonamide]
inhibition at 3 µM (3 μM compound): 11% | inhibition at 10 µM (10 μM compound): 10.6%
